Data as given in doi:10.1101/2024.08.19.608619, “Discovery of potent SARS-CoV-2 nsp3 macrodomain inhibitors uncovers lack of translation to cellular antiviral response” (bioRxiv, 2024).
Like-named read-outs stand apart in the source and are kept apart here.

Tests used:
SARS-CoV-2 nsp3-mac1 [1] = target: T1, SARS-CoV-2 nsp3-mac1 (Severe acute respiratory syndrome coronavirus 2, UniProt P0DTD1); test: biochemical; set-up: SARS-CoV-2 nsp3 macrodomain TR-FRET single point, per cent inhibition, n=2
SARS-CoV-2 nsp3-mac1 [2] = target: T1, SARS-CoV-2 nsp3-mac1; test: biochemical; format: biochemical; settings: SARS-CoV-2 nsp3 macrodomain TR-FRET single point, concentration 50.0 uM

SMILES	perc_inhibition_mean (SARS-CoV-2 nsp3-mac1 [2]) [%]	also measured
c1ccc([C@@H](CNc2ncnc3n[nH]cc23)N2CCOCC2)cc1 [ASAP-0000001]	-0.781	inhibition at 50 µM (SARS-CoV-2 nsp3-mac1 [1]; read-out: perc_inhibition_mean, batch_name=ASAP-0000001-001): -0.781%
COc1cccc(Cl)c1CNc1ncnc2[nH]ncc12 [ASAP-0000002]	-1.826	inhibition at 50 µM (SARS-CoV-2 nsp3-mac1 [1]; read-out: perc_inhibition_mean, batch_name=ASAP-0000002-001): -1.83%
c1ccc2sc(CCNc3ncnc4nc[nH]c34)nc2c1 [ASAP-0000003]	-4.211	inhibition at 50 µM (SARS-CoV-2 nsp3-mac1 [1]; read-out: perc_inhibition_mean, batch_name=ASAP-0000003-001): -4.21%
CC(C)(CCNc1ncnc2[nH]ccc12)S(C)(=O)=O [ASAP-0000004]	0.75	inhibition at 50 µM (SARS-CoV-2 nsp3-mac1 [1]; read-out: perc_inhibition_mean, batch_name=ASAP-0000004-001): 0.75%
C=CCn1c(Sc2ncnc3[nH]ccc23)nc2sccc2c1=O [ASAP-0000005]	6.305	inhibition at 50 µM (SARS-CoV-2 nsp3-mac1 [1]; read-out: perc_inhibition_mean, batch_name=ASAP-0000005-001): 6.3%
c1nc(N2CC[C@@H](n3cncn3)C2)c2cc[nH]c2n1 [ASAP-0000006]	-1.543	inhibition at 50 µM (SARS-CoV-2 nsp3-mac1 [1]; read-out: perc_inhibition_mean, batch_name=ASAP-0000006-001): -1.54%
c1ccc(CN2CCO[C@@H](CNc3ncnc4nc[nH]c34)C2)cc1 [ASAP-0000007]	-2.441	inhibition at 50 µM (SARS-CoV-2 nsp3-mac1 [1]; read-out: perc_inhibition_mean, batch_name=ASAP-0000007-001): -2.44%
CC(C)NC(=O)[C@@H]1CCCN(c2ncnc3[nH]ccc23)C1 [ASAP-0000008]	1.78	inhibition at 50 µM (SARS-CoV-2 nsp3-mac1 [1]; read-out: perc_inhibition_mean, batch_name=ASAP-0000008-001): 1.78%
c1ccc(OC[C@@H]2CCCN2c2ncnc3[nH]ccc23)cc1 [ASAP-0000009]	-0.466	inhibition at 50 µM (SARS-CoV-2 nsp3-mac1 [1]; read-out: perc_inhibition_mean, batch_name=ASAP-0000009-001): -0.466%
O=C(Nc1cnc2[nH]ncc2c1)c1noc2c1CCCC2 [ASAP-0000010]	-1.398	inhibition at 50 µM (SARS-CoV-2 nsp3-mac1 [1]; read-out: perc_inhibition_mean, batch_name=ASAP-0000010-001): -1.4%
O=S(=O)(Nc1cnc2[nH]ncc2c1)c1cnn(C2CCCC2)c1 [ASAP-0000011]	0.415	inhibition at 50 µM (SARS-CoV-2 nsp3-mac1 [1]; read-out: perc_inhibition_mean, batch_name=ASAP-0000011-001): 0.415%
O=C(Nc1cnc2[nH]ncc2c1)c1ccccc1CN1CCOCC1 [ASAP-0000012]	-3.239	inhibition at 50 µM (SARS-CoV-2 nsp3-mac1 [1]; read-out: perc_inhibition_mean, batch_name=ASAP-0000012-001): -3.24%
Cc1cnc(CCNc2ncnc3[nH]ncc23)c(C)c1 [ASAP-0000013]	4.342	inhibition at 50 µM (SARS-CoV-2 nsp3-mac1 [1]; read-out: perc_inhibition_mean, batch_name=ASAP-0000013-001): 4.34%
Cc1cccc(OCCNc2ncnc3nc[nH]c23)c1 [ASAP-0000014]	3.91	inhibition at 50 µM (SARS-CoV-2 nsp3-mac1 [1]; read-out: perc_inhibition_mean, batch_name=ASAP-0000014-001): 3.91%
Fc1ccc(OC(F)F)c(CNc2cnc3[nH]ncc3c2)c1 [ASAP-0000015]	-6.672	inhibition at 50 µM (SARS-CoV-2 nsp3-mac1 [1]; read-out: perc_inhibition_mean, batch_name=ASAP-0000015-002): -6.67%
O=C(Nc1cnc2[nH]ncc2c1)C1CCN(c2ccc3nncn3n2)CC1 [ASAP-0000016]	16.966	inhibition at 50 µM (SARS-CoV-2 nsp3-mac1 [1]; read-out: perc_inhibition_mean, batch_name=ASAP-0000016-001): 17%
NS(=O)(=O)N1CCCN(c2ncnc3[nH]c(I)cc23)CC1 [ASAP-0000017]	2.291	inhibition at 50 µM (SARS-CoV-2 nsp3-mac1 [1]; read-out: perc_inhibition_mean, batch_name=ASAP-0000017-001): 2.29%
Cc1ccc(S(=O)(=O)Nc2ccccc2F)cc1C(=O)Nc1cnc2[nH]ncc2c1 [ASAP-0000018]	0.764	inhibition at 50 µM (SARS-CoV-2 nsp3-mac1 [1]; read-out: perc_inhibition_mean, batch_name=ASAP-0000018-001): 0.764%
CNC(=O)c1cccc(CNC(=O)c2ncnc3[nH]ccc23)c1 [ASAP-0000019]	-5.906	inhibition at 50 µM (SARS-CoV-2 nsp3-mac1 [1]; read-out: perc_inhibition_mean, batch_name=ASAP-0000019-001): -5.91%
Cc1[nH]c2ncnc(NC(=O)C3CCC(F)(F)CC3)c2c1C [ASAP-0000020]	2.148	inhibition at 50 µM (SARS-CoV-2 nsp3-mac1 [1]; read-out: perc_inhibition_mean, batch_name=ASAP-0000020-001): 2.15%
Fc1ccc(Oc2cc(CNc3ncnc4nc[nH]c34)ccn2)cc1 [ASAP-0000021]	2.011	inhibition at 50 µM (SARS-CoV-2 nsp3-mac1 [1]; read-out: perc_inhibition_mean, batch_name=ASAP-0000021-001): 2.01%
c1cc(CNc2cnc3[nH]ncc3c2)cc(-c2ccncc2)c1 [ASAP-0000022]	-17.179	inhibition at 50 µM (SARS-CoV-2 nsp3-mac1 [1]; read-out: perc_inhibition_mean, batch_name=ASAP-0000022-001): -17.2%
O=C(Nc1cnc2[nH]ncc2c1)c1ccc(Oc2cccc(Br)c2)nc1 [ASAP-0000023]	-0.183	inhibition at 50 µM (SARS-CoV-2 nsp3-mac1 [1]; read-out: perc_inhibition_mean, batch_name=ASAP-0000023-001): -0.183%
C#Cc1cccc(NC(=O)CN(C)c2ncnc3[nH]ccc23)c1 [ASAP-0000024]	4.398	inhibition at 50 µM (SARS-CoV-2 nsp3-mac1 [1]; read-out: perc_inhibition_mean, batch_name=ASAP-0000024-001): 4.4%
CN(CCOc1ccccc1)c1ncnc2[nH]ccc12 [ASAP-0000026]	-2.258	inhibition at 50 µM (SARS-CoV-2 nsp3-mac1 [1]; read-out: perc_inhibition_mean, batch_name=ASAP-0000026-001): -2.26%

SMILES	perc_inhibition_mean (SARS-CoV-2 nsp3-mac1 [2]) [%]	also measured
Cc1[nH]c2ncnc(NC(=O)c3ncn(-c4ccccc4)n3)c2c1C [ASAP-0000027]	7.104	inhibition at 50 µM (SARS-CoV-2 nsp3-mac1 [1]; read-out: perc_inhibition_mean, batch_name=ASAP-0000027-001): 7.1%
COc1cccc2cc(CNc3cnc4[nH]ncc4c3)oc12 [ASAP-0000028]	-4.293	inhibition at 50 µM (SARS-CoV-2 nsp3-mac1 [1]; read-out: perc_inhibition_mean, batch_name=ASAP-0000028-001): -4.29%
COc1cc(CNc2cnc3[nH]ncc3c2)ccc1Cl [ASAP-0000029]	-2.794	inhibition at 50 µM (SARS-CoV-2 nsp3-mac1 [1]; read-out: perc_inhibition_mean, batch_name=ASAP-0000029-001): -2.79%
FC(F)(F)c1ccccc1[C@@H]1CN(c2ncnc3[nH]ccc23)CCO1 [ASAP-0000030]	-5.311	inhibition at 50 µM (SARS-CoV-2 nsp3-mac1 [1]; read-out: perc_inhibition_mean, batch_name=ASAP-0000030-001): -5.31%
O=C(Cc1ccc(F)cc1)Nc1ccc2[nH]ncc2c1 [ASAP-0000032]	1.139	inhibition at 50 µM (SARS-CoV-2 nsp3-mac1 [1]; read-out: perc_inhibition_mean, batch_name=ASAP-0000032-001): 1.14%
CC(C)(c1noc(-c2ncnc3[nH]ccc23)n1)S(C)(=O)=O [ASAP-0000033]	-0.756	inhibition at 50 µM (SARS-CoV-2 nsp3-mac1 [1]; read-out: perc_inhibition_mean, batch_name=ASAP-0000033-001): -0.756%
O=C(CNc1ncnc2[nH]ccc12)N1CCc2ccccc21 [ASAP-0000034]	1.193	inhibition at 50 µM (SARS-CoV-2 nsp3-mac1 [1]; read-out: perc_inhibition_mean, batch_name=ASAP-0000034-001): 1.19%
CN1CCOc2cccc(NC(=O)Nc3cnc4[nH]ncc4c3)c21 [ASAP-0000035]	-6.537	inhibition at 50 µM (SARS-CoV-2 nsp3-mac1 [1]; read-out: perc_inhibition_mean, batch_name=ASAP-0000035-001): -6.54%
c1ccc2sc(CNc3ncnc4[nH]ccc34)nc2c1 [ASAP-0000036]	-0.671	inhibition at 50 µM (SARS-CoV-2 nsp3-mac1 [1]; read-out: perc_inhibition_mean, batch_name=ASAP-0000036-001): -0.671%
O=C1CN(c2ccc(Nc3ncnc4[nH]ccc34)cn2)CCN1 [ASAP-0000037]	-16.793	inhibition at 50 µM (SARS-CoV-2 nsp3-mac1 [1]; read-out: perc_inhibition_mean, batch_name=ASAP-0000037-001): -16.8%
Cc1cccc2oc(CCNc3ncnc4[nH]ccc34)nc12 [ASAP-0000038]	-3.259	inhibition at 50 µM (SARS-CoV-2 nsp3-mac1 [1]; read-out: perc_inhibition_mean, batch_name=ASAP-0000038-001): -3.26%
O=C(OCC(Br)=C1CCOCC1)c1ncnc2[nH]ccc12 [ASAP-0000039]	-5.359	inhibition at 50 µM (SARS-CoV-2 nsp3-mac1 [1]; read-out: perc_inhibition_mean, batch_name=ASAP-0000039-001): -5.36%
CS(=O)(=O)N1CC[C@@H](COC(=O)c2ncnc3[nH]ccc23)C1 [ASAP-0000040]	0.187	inhibition at 50 µM (SARS-CoV-2 nsp3-mac1 [1]; read-out: perc_inhibition_mean, batch_name=ASAP-0000040-001): 0.187%
Cc1nc(C)c(CC(=O)Nc2cnc3[nH]ncc3c2)c(=O)[nH]1 [ASAP-0000041]	4.825	inhibition at 50 µM (SARS-CoV-2 nsp3-mac1 [1]; read-out: perc_inhibition_mean, batch_name=ASAP-0000041-001): 4.83%
O=C(Cc1n[nH]c2c1CCCC2)Nc1cnc2[nH]ncc2c1 [ASAP-0000042]	-1.262	inhibition at 50 µM (SARS-CoV-2 nsp3-mac1 [1]; read-out: perc_inhibition_mean, batch_name=ASAP-0000042-001): -1.26%
Cc1noc([C@@H]2CCCN(c3ncnc4[nH]ccc34)C2)n1 [ASAP-0000043]	1.916	inhibition at 50 µM (SARS-CoV-2 nsp3-mac1 [1]; read-out: perc_inhibition_mean, batch_name=ASAP-0000043-001): 1.92%
NC(=O)c1ccccc1NC(=O)c1ncnc2[nH]ccc12 [ASAP-0000044]	-2.586	inhibition at 50 µM (SARS-CoV-2 nsp3-mac1 [1]; read-out: perc_inhibition_mean, batch_name=ASAP-0000044-001): -2.59%
OC[C@@H]1CN(c2ncnc3nc[nH]c23)CCC1(F)F [ASAP-0000045]	1.75	inhibition at 50 µM (SARS-CoV-2 nsp3-mac1 [1]; read-out: perc_inhibition_mean, batch_name=ASAP-0000045-001): 1.75%
Cc1nc(Nc2cnn(CCO)c2)c2cc[nH]c2n1 [ASAP-0000046]	-6.147	inhibition at 50 µM (SARS-CoV-2 nsp3-mac1 [1]; read-out: perc_inhibition_mean, batch_name=ASAP-0000046-001): -6.15%
OCc1cn([C@@H]2CCCN(c3ncnc4[nH]ccc34)C2)nn1 [ASAP-0000047]	-0.682	inhibition at 50 µM (SARS-CoV-2 nsp3-mac1 [1]; read-out: perc_inhibition_mean, batch_name=ASAP-0000047-001): -0.682%
C=CCn1c(Cc2ccccc2)nnc1Sc1ncnc2[nH]ccc12 [ASAP-0000048]	-7.711	inhibition at 50 µM (SARS-CoV-2 nsp3-mac1 [1]; read-out: perc_inhibition_mean, batch_name=ASAP-0000048-001): -7.71%
Fc1ccc(F)c(Sc2ncnc3[nH]ccc23)c1 [ASAP-0000049]	-1.149	inhibition at 50 µM (SARS-CoV-2 nsp3-mac1 [1]; read-out: perc_inhibition_mean, batch_name=ASAP-0000049-001): -1.15%
Cc1ccnc(C2CCN(c3ncnc4[nH]ccc34)CC2)n1 [ASAP-0000050]	3.465	inhibition at 50 µM (SARS-CoV-2 nsp3-mac1 [1]; read-out: perc_inhibition_mean, batch_name=ASAP-0000050-001): 3.46%
O=S1(=O)CCC[C@@H](CNc2ncnc3n[nH]cc23)C1 [ASAP-0000051]	4.593	inhibition at 50 µM (SARS-CoV-2 nsp3-mac1 [1]; read-out: perc_inhibition_mean, batch_name=ASAP-0000051-001): 4.59%
